In PMC4491657, “Design and Synthesis of Novel N-Arylsulfonyl-3-(2-yl-ethanone)-6-methylindole Derivatives as Inhibitors of HIV-1 Replication” (Pharmaceuticals, 2015):

Tests used:
HIV-1 IIIB = test: Syncytia assay (anti-HIV-1 activity in acutely infected C8166 cells); format: cell-based; settings: Human immunodeficiency virus 1, 72 h; concentration that reduces syncytia formation by 50%; C8166 cells infected with HIV-1 IIIB, M.O.I 0.06, 3 days; means of two separate experiments; read-out: EC50 (50% effective concentration)
Protocol: (§1) Cell line (C8166) and the laboratory-derived virus (HIV-1 IIIB) were obtained from the MRC, AIDS Reagent Project, London, UK. C8166 was maintained in RPMI-1640 supplemented with 10% heat-inactivated new born calf serum (Gibco, USA). The cells used in all experiments were in log-phase growth. The 50% HIV-1 IIIB tissue culture infectious dose (TCID50) in C8166 cells was determined and calculated by the Reed and Muench method. Virus stocks were stored in small aliquots at −70 °C [11].
In the presence of 100 μL of various concentrations of compounds, C8166 cells (4 × 10^5/mL) were infected with virus HIV-1IIIB at a multiplicity of infection (M.O.I) of 0.06. The final volume per well was 200 μL. Control assays were performed without the testing compounds in HIV-1IIIB infected and uninfected cultures. After 3 days of culture, the cytopathic effect (CPE) was measured by counting the number of syncytia. Percentage inhibition of syncytia formation was calculated and 50% effective concentration (EC50) was calculated. AZT (Sigma, USA) was used as a positive control. Therapeutic index (TI) = CC50/EC50 [13].

[1] = MTT-based cytotoxicity assay; settings: human, C8166 cells, concentration that causes 50% reduction in total C8166 cell number, means of two separate experiments, read-out: CC50 (50% cytotoxic concentration)
Protocol: as §1
Cellular toxicity of compounds 4a–f and 6 on C8166 cells was assessed by the MTT method as described previously. Briefly, cells were seeded on 96-well microtiter plate in the absence or presence of various concentrations of compounds in triplicate and incubated at 37 °C in a humid atmosphere of 5% CO2 for 3 days. The supernatants were discarded and MTT reagent (5 mg/mL in PBS) was added to each wells, then incubated for 4 h, 100 μL of 50% DMF-20% SDS was added. After the formazan was dissolved completely, the plates were read on a Bio-TekElx800 ELISA reader at 595/630 nm. The cytotoxic concentration that caused the reduction of viable C8166 cells by 50% (CC50) was determined from dose-response curve.

SMILES | EC50 (HIV-1 IIIB) [µM] | CC50 at 3 days [1] [µM] | melting point [°C]
Cc1cn([C@H]2C[C@H](N=[N+]=[N-])[C@@H](CO)O2)c(=O)[nH]c1=O [AZT, 3'-azido-3'-deoxythymidine, reference compound] | 0.0121 | 4260 | –
Cc1ccc2c(C(=O)CN3CCCCC3)cn(S(=O)(=O)c3ccccc3)c2c1 [Compound 4a, N-Phenylsulfonyl-3-[2-piperidinylethanone]-6-methylindole] | 32.8 | > 504 | 132 to 134
Cc1ccc2c(C(=O)CN3CCOCC3)cn(S(=O)(=O)c3ccccc3)c2c1 [Compound 4b, N-Phenylsulfonyl-3-[2-morpholinoethanone]-6-methylindole] | 56.6 | > 502 | 174 to 176
Cc1ccc2c(C(=O)CN3CCCC3)cn(S(=O)(=O)c3ccccc3)c2c1 [Compound 4c, N-Phenylsulfonyl-3-[2-pyrrolidinoethanone]-6-methylindole] | 106 | 226 | 124 to 126
Cc1ccc2c(C(=O)CN(C(C)C)C(C)C)cn(S(=O)(=O)c3ccccc3)c2c1 [Compound 4d, N-Phenylsulfonyl-3-[2-diisopropylaminoethanone]-6-methylindole] | 17.9 | 220 | –
CCCCNCC(=O)c1cn(S(=O)(=O)c2ccccc2)c2cc(C)ccc12 [Compound 4e, N-Phenylsulfonyl-3-[2-butylaminoethanone]-6-methylindole] | 30 | 43.8 | –
CCc1ccc(S(=O)(=O)n2cc(C(=O)CN3CCOCC3)c3ccc(C)cc32)cc1 [Compound 4f, N-(p-Ethyl)phenylsulfonyl-3-[2-morpholinoethanone]-6-methylindole] | 9.42 | > 469 | –
CCc1ccc(S(=O)(=O)n2cc(C(=O)CSc3nnc(-c4ccccc4)o3)c3ccc(C)cc32)cc1 [Compound 6, N-(p-Ethyl)phenylsulfonyl-3-[2-(5-phenyl-1,3,4-oxadiazole-2-yl-thio)ethanone]-6-methylindole] | 4.62 | 309 | 122 to 124
